Results published in the NIST ThermoML archive (doi:10.1021/je700152c).

Assay: molar heat capacity at saturation pressure; xn = mol fraction of the nth substance listed

CCCCn1cc[n+](C)c1.Cc1ccc(S(=O)(=O)[O-])cc1 [1-butyl-3-methylimidazolium tosylate] + O
Details | molar heat capacity [J/K/mol]
187.71 K, Metastable crystal, x1 = 0.83 | 257.58
188.37 K, Crystal, x1 = 0.37 | 129.48
189.01 K, Crystal, x1 = 0.3 | 108.8
189.44 K, Crystal, x1 = 0.83 | 237.24
189.61 K, Metastable crystal, x1 = 0.83 | 259.14
191.25 K, Crystal, x1 = 0.37 | 131.12
191.41 K, Crystal, x1 = 0.83 | 240.11
191.51 K, Metastable crystal, x1 = 0.83 | 260.97
191.66 K, Crystal, x1 = 0.3 | 109.86
193.36 K, Crystal, x1 = 0.83 | 244.28
193.41 K, Metastable crystal, x1 = 0.83 | 262.79
194.12 K, Crystal, x1 = 0.37 | 132.64
194.31 K, Crystal, x1 = 0.3 | 111.02
195.3 K, Crystal, x1 = 0.83 | 250.02
195.31 K, Metastable crystal, x1 = 0.83 | 264.88
196.95 K, Crystal, x1 = 0.3 | 112.29
196.98 K, Crystal, x1 = 0.37 | 134.15
197.21 K, Metastable crystal, x1 = 0.83 | 268.01
197.23 K, Crystal, x1 = 0.83 | 254.97
199.09 K, Metastable crystal, x1 = 0.83 | 272.44
199.14 K, Crystal, x1 = 0.83 | 258.88
199.58 K, Crystal, x1 = 0.3 | 113.66
199.84 K, Crystal, x1 = 0.37 | 135.92
201 K, Metastable crystal, x1 = 0.83 | 280.52
201.17 K, Crystal, x1 = 0.83 | 262.53
201.54 K, Crystal, x1 = 0.3 | 114.83
201.97 K, Crystal, x1 = 0.37 | 137.43
202.83 K, Crystal, x1 = 0.3 | 115.46
202.96 K, Metastable crystal, x1 = 0.83 | 287.56
203.32 K, Crystal, x1 = 0.83 | 264.88
203.36 K, Crystal, x1 = 0.37 | 138.57
204.12 K, Crystal, x1 = 0.3 | 115.99
204.75 K, Crystal, x1 = 0.37 | 139.08
204.92 K, Metastable crystal, x1 = 0.83 | 289.38
205.4 K, Crystal, x1 = 0.3 | 116.63
205.47 K, Crystal, x1 = 0.83 | 266.7
206.15 K, Crystal, x1 = 0.37 | 140.46
206.69 K, Crystal, x1 = 0.3 | 117.05
206.89 K, Metastable crystal, x1 = 0.83 | 290.69
207.55 K, Crystal, x1 = 0.37 | 141.22
207.62 K, Crystal, x1 = 0.83 | 268.53
207.98 K, Crystal, x1 = 0.3 | 117.58
208.85 K, Metastable crystal, x1 = 0.83 | 291.99
208.96 K, Crystal, x1 = 0.37 | 142.1
209.26 K, Crystal, x1 = 0.3 | 118
209.77 K, Crystal, x1 = 0.83 | 270.61
210.37 K, Crystal, x1 = 0.37 | 142.86
210.55 K, Crystal, x1 = 0.3 | 118.74
210.81 K, Metastable crystal, x1 = 0.83 | 293.03
211.79 K, Crystal, x1 = 0.37 | 143.62
211.84 K, Crystal, x1 = 0.3 | 119.27
211.92 K, Crystal, x1 = 0.83 | 272.7
212.77 K, Metastable crystal, x1 = 0.83 | 294.34
213.13 K, Crystal, x1 = 0.3 | 120.22
213.22 K, Crystal, x1 = 0.37 | 144.25
214.07 K, Crystal, x1 = 0.83 | 274.78
214.41 K, Crystal, x1 = 0.3 | 121.91
214.66 K, Crystal, x1 = 0.37 | 145.26
214.74 K, Metastable crystal, x1 = 0.83 | 295.64
215.69 K, Crystal, x1 = 0.3 | 123.6
216.09 K, Crystal, x1 = 0.37 | 146.27
216.21 K, Crystal, x1 = 0.83 | 276.87
216.7 K, Metastable crystal, x1 = 0.83 | 296.68
216.97 K, Crystal, x1 = 0.3 | 125.51
217.52 K, Crystal, x1 = 0.37 | 148.16
218.24 K, Crystal, x1 = 0.3 | 127.73
218.36 K, Crystal, x1 = 0.83 | 278.69
218.66 K, Metastable crystal, x1 = 0.83 | 297.99
218.93 K, Crystal, x1 = 0.37 | 150.81
219.5 K, Crystal, x1 = 0.3 | 130.37
220.33 K, Crystal, x1 = 0.37 | 154.98
220.5 K, Crystal, x1 = 0.83 | 280.78
220.62 K, Metastable crystal, x1 = 0.83 | 299.29
220.76 K, Crystal, x1 = 0.3 | 133.97
221.7 K, Crystal, x1 = 0.37 | 161.54
222 K, Crystal, x1 = 0.3 | 138.72
222.58 K, Metastable crystal, x1 = 0.83 | 300.59
222.65 K, Crystal, x1 = 0.83 | 282.87
223.04 K, Crystal, x1 = 0.37 | 170.5
223.23 K, Crystal, x1 = 0.3 | 144.64
224.35 K, Crystal, x1 = 0.37 | 182.11
224.44 K, Crystal, x1 = 0.3 | 151.62
224.54 K, Metastable crystal, x1 = 0.83 | 301.9
224.8 K, Crystal, x1 = 0.83 | 284.95
225.63 K, Crystal, x1 = 0.3 | 159.55
225.63 K, Crystal, x1 = 0.37 | 195.24
226.5 K, Metastable crystal, x1 = 0.83 | 303.2
226.79 K, Crystal, x1 = 0.3 | 169.18
226.88 K, Crystal, x1 = 0.37 | 210.13
226.96 K, Crystal, x1 = 0.83 | 286.78
227.92 K, Crystal, x1 = 0.3 | 180.91
228.08 K, Crystal, x1 = 0.37 | 225.52
228.46 K, Metastable crystal, x1 = 0.83 | 304.76
229.02 K, Crystal, x1 = 0.3 | 196.03
229.14 K, Crystal, x1 = 0.83 | 288.6
229.24 K, Crystal, x1 = 0.37 | 246.35
230.06 K, Crystal, x1 = 0.3 | 216.44
230.36 K, Crystal, x1 = 0.37 | 271.97
230.42 K, Metastable crystal, x1 = 0.83 | 306.33
231.05 K, Crystal, x1 = 0.3 | 243.4
231.35 K, Crystal, x1 = 0.83 | 290.43
231.41 K, Crystal, x1 = 0.37 | 306.67
231.97 K, Crystal, x1 = 0.3 | 279.14
232.38 K, Metastable crystal, x1 = 0.83 | 307.89
232.4 K, Crystal, x1 = 0.37 | 350.72
232.82 K, Crystal, x1 = 0.3 | 325.66
233.32 K, Crystal, x1 = 0.37 | 386.68
233.59 K, Crystal, x1 = 0.3 | 384.24
233.59 K, Crystal, x1 = 0.83 | 291.21
234.25 K, Crystal, x1 = 0.37 | 311.22
234.29 K, Crystal, x1 = 0.3 | 455.08
234.34 K, Metastable crystal, x1 = 0.83 | 309.46
234.92 K, Crystal, x1 = 0.3 | 526.56
235.39 K, Crystal, x1 = 0.37 | 181.61
235.5 K, Crystal, x1 = 0.3 | 534.91
235.86 K, Crystal, x1 = 0.83 | 290.16
236.15 K, Crystal, x1 = 0.3 | 325.13
236.31 K, Metastable crystal, x1 = 0.83 | 310.24
236.7 K, Crystal, x1 = 0.37 | 181.73
237.09 K, Crystal, x1 = 0.3 | 171.82
238 K, Crystal, x1 = 0.37 | 183.25
238.22 K, Crystal, x1 = 0.83 | 290.95
238.25 K, Crystal, x1 = 0.3 | 170.34
238.27 K, Metastable crystal, x1 = 0.83 | 311.54
239.3 K, Crystal, x1 = 0.37 | 184.76
239.4 K, Crystal, x1 = 0.3 | 171.4
240.23 K, Metastable crystal, x1 = 0.83 | 313.11
240.46 K, Crystal, x1 = 0.83 | 293.81
240.56 K, Crystal, x1 = 0.3 | 172.98
240.6 K, Crystal, x1 = 0.37 | 186.27
241.71 K, Crystal, x1 = 0.3 | 174.78
241.9 K, Crystal, x1 = 0.37 | 188.17
242.19 K, Metastable crystal, x1 = 0.83 | 315.19
242.68 K, Crystal, x1 = 0.83 | 297.2
242.86 K, Crystal, x1 = 0.3 | 176.47
243.19 K, Crystal, x1 = 0.37 | 189.93
244.01 K, Crystal, x1 = 0.3 | 178.27
244.14 K, Metastable crystal, x1 = 0.83 | 317.28
244.48 K, Crystal, x1 = 0.37 | 191.7
244.87 K, Crystal, x1 = 0.83 | 300.59
245.15 K, Crystal, x1 = 0.3 | 179.96
245.76 K, Crystal, x1 = 0.37 | 193.72
246.08 K, Metastable crystal, x1 = 0.83 | 319.62
